From patent US20110039825A1, “LIGANDS OF ALPHA-ADRENOCEPTORS, DOPAMINE, HISTAMINE, IMIDAZOLINE AND SEROTONIN RECEPTORS AND THEIR USE” (Alla Chem, LLC, priority 2007, published 2011)

Experiments:
imidazoline receptor I2 = assay: radioligand binding to imidazoline receptor I2 ([3H] Idazoxan); set-up: species or system rat; details: 10 μM ligand
Description: Determination of investigated compounds' binding to imidazoline I2 receptor is carried out according to the method described in [Brown C M, MacKinnon A C, McGrath J C, Spedding M and Kilpatrick A T, a2-Adrenoceptor subtypes and imidazoline-like binding in the rat brain. Br J. Pharmacol. 99:803-809, 1990]. […] Idazoxan is used as positive control.

recombinant human 5-HT1A = molecular target: T1, recombinant human 5-HT1A (Homo sapiens, UniProt P08908); assay: radioligand binding to serotonin receptor 5-HT1A ([3H] 8-OH-DPAT); details: ligand concentration 1 μM
T1 construct: expressed in transfected cells; host or cells: CHO
T1 sequence (P08908 1-422): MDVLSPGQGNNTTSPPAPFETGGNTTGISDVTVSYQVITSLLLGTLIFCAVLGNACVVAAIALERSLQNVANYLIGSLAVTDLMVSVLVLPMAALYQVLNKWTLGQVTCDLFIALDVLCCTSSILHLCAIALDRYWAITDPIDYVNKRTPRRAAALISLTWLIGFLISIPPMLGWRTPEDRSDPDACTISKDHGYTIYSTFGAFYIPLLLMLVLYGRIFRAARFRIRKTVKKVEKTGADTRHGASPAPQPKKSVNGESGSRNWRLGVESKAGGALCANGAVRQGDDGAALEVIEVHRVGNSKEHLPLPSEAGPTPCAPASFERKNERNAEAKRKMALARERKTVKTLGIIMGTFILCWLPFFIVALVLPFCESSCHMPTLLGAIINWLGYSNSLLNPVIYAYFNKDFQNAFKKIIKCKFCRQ
Source text: J Pharmacol Exp Ther. 306(1): 301-309, 2003]. […] Metergoline is used as positive control.

[1] = molecular target: T2, recombinant human 5-HT2C receptor (Homo sapiens, UniProt P28335); assay: radioligand binding to serotonin receptor 5-HT2C ([3H] Mesulergine)
T2 construct: expressed in transfected cells; host or cells: CHO-K1
T2 sequence (P28335 33-458): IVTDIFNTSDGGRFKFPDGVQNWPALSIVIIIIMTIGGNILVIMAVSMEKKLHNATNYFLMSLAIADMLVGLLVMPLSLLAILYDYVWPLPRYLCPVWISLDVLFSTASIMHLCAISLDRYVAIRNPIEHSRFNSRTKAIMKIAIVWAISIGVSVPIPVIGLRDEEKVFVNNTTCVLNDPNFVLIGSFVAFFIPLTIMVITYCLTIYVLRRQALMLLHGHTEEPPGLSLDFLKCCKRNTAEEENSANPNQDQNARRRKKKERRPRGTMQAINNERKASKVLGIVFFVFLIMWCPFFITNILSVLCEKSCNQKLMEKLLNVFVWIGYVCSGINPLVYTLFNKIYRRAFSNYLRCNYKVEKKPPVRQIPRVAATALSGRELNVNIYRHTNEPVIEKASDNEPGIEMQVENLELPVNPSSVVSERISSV
Source text: J. Neurochem. 69: 1449-1458, 1997]. […] SB242084 is used as positive control.

[2] = molecular target: T3, recombinant human 5-HT2B receptor (Homo sapiens, UniProt P41595); assay: radioligand binding to serotonin receptor 5-HT2B ([3H] Lysergic acid diethylamide); details: 10 μM ligand
T3 construct: expressed in transfected cells; host or cells: CHO-K1
T3 sequence (P41595 whole entry): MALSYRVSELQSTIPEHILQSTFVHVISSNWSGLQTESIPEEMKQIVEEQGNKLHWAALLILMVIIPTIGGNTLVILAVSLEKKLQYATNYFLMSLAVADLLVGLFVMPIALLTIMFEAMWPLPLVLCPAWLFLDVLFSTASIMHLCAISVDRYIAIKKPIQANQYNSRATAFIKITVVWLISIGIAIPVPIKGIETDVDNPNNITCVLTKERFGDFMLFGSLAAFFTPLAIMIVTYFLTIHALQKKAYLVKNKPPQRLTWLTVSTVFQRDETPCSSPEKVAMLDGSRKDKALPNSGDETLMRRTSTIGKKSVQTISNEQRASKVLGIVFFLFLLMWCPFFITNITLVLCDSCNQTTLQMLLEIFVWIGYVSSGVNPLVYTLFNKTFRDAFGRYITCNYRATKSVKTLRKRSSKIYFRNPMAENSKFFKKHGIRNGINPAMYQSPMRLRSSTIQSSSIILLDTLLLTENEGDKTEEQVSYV
Description: Screening of the disclosed compounds for potential ability to interact with serotonin receptor 5-HT2A is carried out by method of radioligand binding. For this purpose membrane species are prepared from CHO-K1 cells comprising recombinant human 5-HT2B receptor by homogenization of recombinant cells in glass homogenizer with the subsequent separation of plasmatic membranes from cell nuclei, mitochondrias and cell wreckages by differential centrifugation. […] After incubation the samples are filtered in vacuo on glass-microfiber filters G/F (Millipor, USA), filters are washed three times with cold solution of medium and radioactivity is measured by scintillation counter MicroBeta 340 (Perkin Elmer, USA). […] Ketanserin is used as positive control. The tested compounds' binding to the receptor is determined by their ability to displace the radioligand and is expressed in percent of displacement (% I). Values of % I are calculated according to the following equation:
wherein: TA—is the overall radioactivity in the presence of radioligand only, CA—is the radioactivity in the presence of radioligand and tested compound and NA—is the radioactivity in the presence of radioligand and Serotonin (10 μM).

[3] = molecular target: T4, recombinant human 5-HT6 receptor (Homo sapiens, UniProt P50406); assay: radioligand binding to serotonin receptor 5-HT6 ([3H] Lysergic acid diethylamide); details: ligand concentration 1 μM; read-out: 5-HT6 % inhibition
T4 construct: expressed in transfected cells; host or cells: HeLa
T4 sequence (P50406 whole entry): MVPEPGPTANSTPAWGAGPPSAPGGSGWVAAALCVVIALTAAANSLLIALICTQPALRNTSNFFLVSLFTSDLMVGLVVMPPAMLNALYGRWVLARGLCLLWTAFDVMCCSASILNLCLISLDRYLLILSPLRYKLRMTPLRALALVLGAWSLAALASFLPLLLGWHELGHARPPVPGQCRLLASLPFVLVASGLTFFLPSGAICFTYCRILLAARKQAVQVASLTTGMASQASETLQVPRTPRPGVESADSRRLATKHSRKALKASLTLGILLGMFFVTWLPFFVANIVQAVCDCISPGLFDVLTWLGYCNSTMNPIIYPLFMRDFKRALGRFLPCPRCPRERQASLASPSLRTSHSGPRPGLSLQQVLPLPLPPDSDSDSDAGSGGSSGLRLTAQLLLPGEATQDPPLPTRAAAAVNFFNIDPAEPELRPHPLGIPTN
Source text: Mol. Pharmacol. 43:320-327, 1993]. […] Methiothepin is used as positive control.

SMILES: Cc1ccc2c(c1)c1c(n2CCc2ccccn2)CCCN(C)C1 [1.2.2(2-2)]
- imidazoline I2 receptor % inhibition (imidazoline receptor I2): 80%
- inhibition at 1 µM (recombinant human 5-HT1A): 28%
- 5-HT2C % inhibition ([1]; 10 μM ligand): 51%
- inhibition at 1 µM ([1]; ligand concentration 1 μM): 94%
- 5-HT2B % inhibition [2]: 10%
- inhibition at 1 µM [3]: 88%
